# In patent US20210113501A1, “METHOD OF ADMINISTERING BETA-HYDROXY-BETA-METHYLBUTYRATE (HMB)” (Metabolic Technologies, Inc., priority 2009, published 2021):
# Assay: Study 2 blood chemistry
# Type: in vivo, human
# Conditions: for Aspartate Aminotransferase / Gamma-glutamyl: in U/L (unit assumed)
# Method: Study 2 design. Study 2 was conducted similar to study 1 with the following modifications. In study 2, plasma levels of HMB were measured for 1440 min (24 h) and total urine collection was also performed for measurement of urinary HMB excretion during this period. After the 180 min blood sample, the subjects were allowed to leave the laboratory and were instructed to return to the laboratory for additional blood samples at 360, 720, and 1440 min after the ingestion of the supplement. As in study 1, each subject took each of the treatments with at least a one week washout period between treatments. Samples were again stored frozen at −70° C. for analysis of plasma and urinary HMB concentrations. Pre-ingestion, 180 min and 1440 min blood samples were again assayed for the same measurements already for study 1. Subjects were provided with a standardized lunch after the 180 min blood sampling and instructed to eat this at approximately 240 min post ingestion. Following the 720 min blood sample, subjects were instructed to eat a normal evening meal before 10 pm. Subjects reported back to the laboratory the following morning for the fasted 1440 min blood sample. A urine collection container was provided and subjects collected all urine produced during the experimental 24 h experimental period. The urine was stored refrigerated when not being collected. Urine volumes were measured and samples of the total urine collection were taken and stored frozen at −70° C. until analyzed for HMB.
# The data were analyzed using a crossover design with Proc GLM in SAS. (45) For the timed sampling of plasma HMB a repeated measures polynomial model was used. The model included subject, order, and treatment main effects and time by treatment interaction where appropriate. For other parameters Proc GLM was also used with subject, order, and treatment main effects and the p values are reported for the treatment main effect. Statistical significance was determined for p<0.05 and a trend was determined for 0.05<p<0.10.
smiles,measurement,setting,value
"CC(C)(O)CC(=O)[O-].CC(C)(O)CC(=O)[O-].[Ca+2] [CaHMB, calcium β-hydroxy-β-methylbutryate, reference compound]",A:G Ratio,After (24 h),1.8 ± 0.1
same,Alanine Aminotransferase,After (24 h),14.9 ± 2.2 IU/L
same,Albumin,After (24 h),4.2 ± 0.1 g/dL
same,Alkaline Phosphatase,After (24 h),66.8 ± 6.9 IU/L
same,Blood Urea Nitrogen,After (24 h),13.4 ± 1.0 mg/dL
same,CO2,After (24 h),27.3 ± 0.6 mEq/L
same,Chloride,After (24 h),103.0 ± 0.5 mEq/L
same,Cholesterol Ratio,After (24 h),3.1 ± 0.2
same,Creatinine,After (24 h),1.0 ± 0.1 mg/dL
same,Direct Bilirubin,After (24 h),0.1 ± 0.04 mg/dL
same,Globulin,After (24 h),2.4 ± 0.1 g/dL
same,Glucose,After (24 h),80.3 ± 2.4 mg/dL
same,HDL,After (24 h),54.0 ± 3.5 mg/dL
same,Iron,After (24 h),59.9 ± 12.2 µg/dL
same,Iron Binding Capacity,After (24 h),377.5 ± 30.3 µg/dL
same,Iron Saturation,After (24 h),17.5 ± 4.2%
same,LDL,After (24 h),88.6 ± 5.9 mg/dL
same,Lactate Dehydrogenase,After (24 h),142.4 ± 10.5 IU/L
same,Phosphorus,After (24 h),4.4 ± 0.1 mg/dL
same,Potassium,After (24 h),4.7 ± 0.1 mEq/L
same,Protein,After (24 h),6.5 ± 0.2 g/dL
same,Sodium,After (24 h),141.4 ± 0.5 mEq/L
same,Total Bilirubin,After (24 h),0.5 ± 0.2 mg/dL
same,Total Cholesterol,After (24 h),162.9 ± 7.1 mg/dL
same,Triglycerides,After (24 h),106.9 ± 17.6 mg/dL
same,UIBC,After (24 h),317.6 ± 38.3 µg/dL
same,Uric Acid,After (24 h),4.2 ± 0.5 mg/dL
same,Aspartate Aminotransferase,After (24 h),20.0 ± 1.1
same,Gamma-glutamyl,After (24 h),14.3 ± 1.4
same,A:G Ratio,Before,1.9 ± 0.1
same,Alanine Aminotransferase,Before,15.4 ± 1.8 IU/L
same,Albumin,Before,4.1 ± 0.1 g/dL
same,Alkaline Phosphatase,Before,65.5 ± 7.3 IU/L
same,Blood Urea Nitrogen,Before,14.8 ± 1.4 mg/dL
same,CO2,Before,24.9 ± 0.6 mEq/L
same,Chloride,Before,102.4 ± 0.5 mEq/L
same,Cholesterol Ratio,Before,3.1 ± 0.2
same,Creatinine,Before,1.0 ± 0.1 mg/dL
same,Direct Bilirubin,Before,0.2 ± 0.1 mg/dL
same,Globulin,Before,2.2 ± 0.1 g/dL
same,Glucose,Before,70.8 ± 0.8 mg/dL
same,HDL,Before,52.3 ± 2.7 mg/dL
same,Iron,Before,99.0 ± 20.0 µg/dL
same,Iron Binding Capacity,Before,371.8 ± 28.6 µg/dL
same,Iron Saturation,Before,28.4 ± 5.8%
same,LDL,Before,88.6 ± 7.2 mg/dL
same,Lactate Dehydrogenase,Before,161.8 ± 12.6 IU/L
same,Phosphorus,Before,4.0 ± 0.1 mg/dL
same,Potassium,Before,4.1 ± 0.1 mEq/L
same,Protein,Before,6.4 ± 0.2 g/dL
same,Sodium,Before,139.5 ± 0.8 mEq/L
same,Total Bilirubin,Before,0.6 ± 0.1 mg/dL
same,Total Cholesterol,Before,160.4 ± 8.0 mg/dL
same,Triglycerides,Before,97.4 ± 12.5 mg/dL
same,UIBC,Before,272.8 ± 39.5 µg/dL
same,Uric Acid,Before,4.8 ± 0.3 mg/dL
same,A:G Ratio % Change,Before to After,−3.4%
same,Alanine Aminotransferase % Change,Before to After,−3.3%
same,Albumin % Change,Before to After,0.6%
same,Alkaline Phosphatase % Change,Before to After,1.9%
same,Aspartate Aminotransferase % Change,Before to After,−11.6%
same,Blood Urea Nitrogen % Change,Before to After,−9.3%
same,CO2 % Change,Before to After,9.5%
same,Chloride % Change,Before to After,0.6%
same,Cholesterol Ratio % Change,Before to After,−0.8%
same,Creatinine % Change,Before to After,−1.5%
same,Direct Bilirubin % Change,Before to After,−37.4%
same,Gamma-glutamyl % Change,Before to After,1.8%
same,Globulin % Change,Before to After,6.7%
same,Glucose % Change,Before to After,13.4%
same,HDL % Change,Before to After,3.3%
same,Iron % Change,Before to After,−39.5%
same,Iron Binding Capacity % Change,Before to After,1.5%
same,Iron Saturation % Change,Before to After,−38.3%
same,LDL % Change,Before to After,0.0%
same,Lactate Dehydrogenase % Change,Before to After,−12.0%
same,Phosphorus % Change,Before to After,10.6%
same,Potassium % Change,Before to After,14.8%
same,Protein % Change,Before to After,2.8%
same,Sodium % Change,Before to After,1.3%
same,Total Bilirubin % Change,Before to After,−17.8%
same,Total Cholesterol % Change,Before to After,1.6%
same,Triglycerides % Change,Before to After,9.8%
same,UIBC % Change,Before to After,16.5%
same,Uric Acid % Change,Before to After,−12.0%
same,Aspartate Aminotransferase,Before,22.6 ± 1.4
same,Gamma-glutamyl,Before,14.0 ± 1.9
